Each structure is given as a SMILES string. Bounds are passed on as bounds.

15 molecules from patent publication US6673790B1, “Indolin-2-one derivatives, preparation and their use as ocytocin receptor ligands” (Sanofi-Synthelabo, priority 2002, dated 2004) can be followed below.

The target of data set [1] is T1, cells expressing human oxytocin receptors (Homo sapiens, UniProt P30559).
T1 sequence (P30559 1-389): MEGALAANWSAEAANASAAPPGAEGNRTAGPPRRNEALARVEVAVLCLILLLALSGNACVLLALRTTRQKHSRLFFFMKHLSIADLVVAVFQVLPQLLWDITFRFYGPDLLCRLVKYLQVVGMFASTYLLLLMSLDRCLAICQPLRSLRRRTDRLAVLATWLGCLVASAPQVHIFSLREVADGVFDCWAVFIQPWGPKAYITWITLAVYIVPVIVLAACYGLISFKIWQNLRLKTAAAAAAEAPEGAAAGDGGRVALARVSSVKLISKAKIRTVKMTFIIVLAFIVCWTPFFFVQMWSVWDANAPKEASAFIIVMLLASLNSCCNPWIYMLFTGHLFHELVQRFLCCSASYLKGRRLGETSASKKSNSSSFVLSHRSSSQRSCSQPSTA
Kind of data set: measurement of intracellular calcium, agonist or antagonist nature. It counts as cell-based. As for the experimental part: The agonist or antagonist nature of the compounds is determined in vitro in a test for the measurement of intracellular calcium with respect to cells expressing human oxytocin receptors according to the general technique described in Am. J. Physiol., 268 (Heart Circ. Physiol., 37), 1995, H404-H410.

Data set [2] concerns the target human vasopressin V2 receptors (Homo sapiens, UniProt P30518). Kind of data set: affinity for vasopressin V2 receptors (method of Birnbaumer et al.). Format: binding. Particulars: read-out: IC50 with respect to the V2 receptors. The text has this:
(§1) The affinity of the compounds according to the invention for human vasopressin V1a receptors (method described by M. Thibonnier et al. in J. Biol. Chem., 1994, 269, 3304-3310), V1b receptors (method described by T. Sugimoto et al. in J. Biol. Chem., 1994, 269, 27088-27092) and V2 receptors (method described by M. Birnbaumer et al. in Nature (Lond.), 1992, 357, 333-335) has also been studied. The compounds studied have little or no affinity for the V1a, V1b and V2 receptors.

Data set [3] has as its target human vasopressin V1a receptors (Homo sapiens, UniProt P37288). Nature of the data set: affinity for vasopressin V1a receptors (method of Thibonnier et al.). It counts as binding. The following applies: read-out: IC50 with respect to the V1a receptors.
Text: as §1

The target of data set [4] is T2, human uterine oxytocin receptors (Homo sapiens, UniProt P30559).
T2 construct: host or cells: membrane preparation
T2 sequence (P30559 1-389): T1 sequence (P30559 1-389)
Kind of data set: in vitro binding test: displacement of a radioiodinated oxytocin analogue in a membrane preparation. On the procedure: The compounds according to the invention have formed the subject of biochemical and pharmacological studies. The affinity of the compounds according to the invention for oxytocin receptors was determined in an in vitro binding test using the method described by J. Elands et al. in Eur. Pharmacol., 1987, 147, 192-207. This method consists in studying in vitro the displacement of a radioiodinated oxytocin analogue at the oxytocin receptors in a membrane preparation of human uterine oxytocin receptors. The IC50 values (concentration which inhibits 50% of the binding of the radioiodinated oxytocin analogue to its receptors) are low and vary from 10^−10 to 10^−6 M in the latter test.

Data set [5] deals with T3, human vasopressin V1b receptors (Homo sapiens, UniProt P47901).
T3 sequence (P47901 1-424): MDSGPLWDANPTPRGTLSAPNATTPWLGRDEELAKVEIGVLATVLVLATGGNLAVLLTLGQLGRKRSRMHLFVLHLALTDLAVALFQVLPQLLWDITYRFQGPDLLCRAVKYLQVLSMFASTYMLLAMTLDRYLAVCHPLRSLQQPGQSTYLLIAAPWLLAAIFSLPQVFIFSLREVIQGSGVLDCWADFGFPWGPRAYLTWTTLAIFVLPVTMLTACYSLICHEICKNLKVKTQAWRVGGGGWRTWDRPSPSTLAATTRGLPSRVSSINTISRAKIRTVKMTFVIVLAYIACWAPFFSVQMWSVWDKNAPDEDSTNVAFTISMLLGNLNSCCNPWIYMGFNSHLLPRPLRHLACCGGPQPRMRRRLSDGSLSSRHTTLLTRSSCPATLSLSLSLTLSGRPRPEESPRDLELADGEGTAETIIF
Nature of the data set: affinity for vasopressin V1b receptors (method of Sugimoto et al.). It counts as binding. Particulars: read-out: IC50 with respect to the V1b receptors.
Text: as §1

human vasopressin V1a receptors, sequence (P37288 whole entry): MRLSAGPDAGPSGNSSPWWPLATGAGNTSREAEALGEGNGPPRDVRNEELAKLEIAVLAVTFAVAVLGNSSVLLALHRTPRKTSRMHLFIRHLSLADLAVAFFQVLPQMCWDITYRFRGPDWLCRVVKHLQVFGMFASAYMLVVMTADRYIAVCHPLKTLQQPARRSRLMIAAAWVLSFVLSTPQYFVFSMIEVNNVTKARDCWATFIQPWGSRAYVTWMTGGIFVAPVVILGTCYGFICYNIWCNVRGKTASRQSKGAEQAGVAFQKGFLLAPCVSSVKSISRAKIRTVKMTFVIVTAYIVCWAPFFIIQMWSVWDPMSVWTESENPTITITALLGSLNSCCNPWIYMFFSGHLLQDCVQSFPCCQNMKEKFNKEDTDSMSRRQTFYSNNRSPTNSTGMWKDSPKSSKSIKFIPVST
human vasopressin V2 receptors, sequence (P30518 whole entry): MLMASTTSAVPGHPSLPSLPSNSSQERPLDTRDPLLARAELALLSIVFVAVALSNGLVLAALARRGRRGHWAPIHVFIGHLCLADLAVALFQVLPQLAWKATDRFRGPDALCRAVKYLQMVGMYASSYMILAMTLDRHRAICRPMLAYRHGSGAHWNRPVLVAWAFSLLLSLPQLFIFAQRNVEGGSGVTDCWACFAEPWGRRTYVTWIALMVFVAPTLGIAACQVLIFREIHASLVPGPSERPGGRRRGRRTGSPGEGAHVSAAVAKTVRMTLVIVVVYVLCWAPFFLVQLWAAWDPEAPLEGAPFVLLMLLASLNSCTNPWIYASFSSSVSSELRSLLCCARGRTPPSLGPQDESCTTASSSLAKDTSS

Turning to `CCN(C)C(=O)c1ccc(Cl)c(C2(C)C(=O)N(Cc3ccc(OC)cc3OC)c3ccc(Cl)cc32)c1` (stereo not shown), the melting point turned out to be 166 °C.
`CCN(CCc1ccccc1)C(=O)c1ccc(Cl)c(C2(C)C(=O)N(Cc3ccc(OC)cc3OC)c3ccc(Cl)cc32)c1` (stereo not shown) had a melting point of 111.7 °C.
The same measure, in the same setting: the result for `COc1ccc(CN2C(=O)C(C)(c3cc(N(C)S(=O)(=O)c4ccccc4)ccc3Cl)c3cc(Cl)ccc32)c(OC)c1` (stereo not shown) (hydrate or solvate) reads 73 °C; that for `CCNC(=O)c1ccc(Cl)c(C2(C)C(=O)N(Cc3ccc(OC)cc3OC)c3ccc(Cl)cc32)c1` (stereo not shown) (hydrate or solvate), 248 °C; that for `COC(=O)C1CCCCN1C(=O)c1ccc(Cl)c(C2(C)C(=O)N(Cc3ccc(OC)cc3OC)c3ccc(Cl)cc32)c1` (stereo not shown), 116 °C.
On the same count and under the same terms, the same measure for `COc1ccc(CN2C(=O)C(C)(c3cc(C(=O)N(C)C)ccc3Cl)c3cc(Cl)ccc32)c(OC)c1` (stereo not shown) (hydrate or solvate): 184 °C; for `COCCOCc1ccc(Cl)c(C2(C)C(=O)N(Cc3ccc(OC)cc3OC)c3ccc(Cl)cc32)c1` (stereo not shown): 114 °C; for `COCC(=O)Nc1ccc(Cl)c(C2(C)C(=O)N(Cc3ccc(OC)cc3OC)c3ccc(Cl)cc32)c1` (stereo not shown): 191 °C.
For `COc1ccc(CN2C(=O)C(C)(c3ccccc3Cl)c3cc(Cl)ccc32)c(OC)c1` (single isomer, unassigned) [dextrorotatory enantiomer of Example 1, 5-Chloro-3-(2-chlorophenyl)-1-(2,4-dimethoxybenzyl)-3-methylindolin-2-one], in data set [1], the “agonist or antagonist nature” value is “antagonist”. Moreover, the IC50 in data set [1] (read-out: IC50 as antagonist) came to 3.2 ± 1.9 nM.
With `CCN(C(=O)c1ccc(Cl)c(C2(C)C(=O)N(Cc3ccc(OC)cc3OC)c3ccc(Cl)cc32)c1)C(C)C` (stereo not shown), the melting point worked out at 102.8 °C.
`CCN(CCOC)C(=O)c1ccc(Cl)c(C2(C)C(=O)N(Cc3ccc(OC)cc3OC)c3ccc(Cl)cc32)c1` (stereo not shown) gave a melting point of 86.3 °C.
Same read-out and setting: the same measure for `COCC1CCCN1C(=O)c1ccc(Cl)c(C2(C)C(=O)N(Cc3ccc(OC)cc3OC)c3ccc(Cl)cc32)c1` (stereo not shown): 98 °C; for `COc1ccc(CN2C(=O)C(C)(c3cc(CN4CCOCC4)ccc3Cl)c3cc(Cl)ccc32)c(OC)c1` (stereo not shown): 145 °C; for `COc1ccc(CN2C(=O)C(C)(c3cc(C(=O)NC4CCCCC4)ccc3Cl)c3cc(Cl)ccc32)c(OC)c1` (stereo not shown): 129.8 °C.
For the molecule `COc1ccc(CN2C(=O)C(C)(c3ccccc3Cl)c3cc(Cl)ccc32)c(OC)c1` (racemic) [Example 1, 5-Chloro-3-(2-chlorophenyl)-1-(2,4-dimethoxybenzyl)-3-methylindolin-2-one], the IC50 was greater than 1000 nM in data set [2], greater than 1000 nM in data set [3], less than 50 nM in data set [4] and greater than 1000 nM in data set [5].
